The chains are these.
B1: lysozyme: host protein tested in preliminary experiments against 16 S. mutans strains (protein, UniProt P61626 19-148, looked up)
Lysozyme C: KVFERCELARTLKRLGMDGYRGISLANWMCLAKWESGYNTRATNYNAGDRSTDYGIFQINSRYWCNDGKTPGAVNACHLSCSALLQDNIADAVACAKRVVRDPQGIRAWVAWRNRCQNRDVRQYVQGCGV

Where no end group is shown, it is not given here.

This assay has as its system S. mutans clinical strains. As to the kind of experiment: alamarBlue antimicrobial susceptibility test. Format: cell-based, Streptococcus mutans. The conditions noted are these: preliminary experiments; 16 S. mutans strains; peptide concentrations 20 μg/ml or below. A general note: Alamar Blue is a resazurin reagent that responds to reducing activity.
Take “HBD-1: human β-defensin, salivary cationic antimicrobial peptide (DHYNCVSSGGQCLYSACPIFTKIQGTCYRGKAKCCK; ends and bridges not checked; cysteine pairing not given here; UniProt P60022 33-68, looked up)”: the “susceptibility of S. mutans strains to the peptide” value (from here on “susceptibility of S. mutans strains”) is “no susceptibility”.

For histatin-5, the “susceptibility of S. mutans strains” value is given as “no susceptibility”.

For B1, the “susceptibility of S. mutans strains” value is recorded as “no susceptibility”.

These data come from article PMC3092152 (Molecular oral microbiology, 2011).
